# Where a name gives a salt, the structure may show the parent alone.
# Test system: NMDA induced convulsions
# Test: inhibition of NMDA induced convulsions in the mouse (procedure of Chiamulera C et al)
# Type: in vivo
# Details: iv, 0.1 mg/kg I.V., generalized seizures induced by intracerebroventricular injection of NMDA in mice
# Experimental: The ability of compounds of the invention to inhibit NMDA induced convulsions in the mouse was determined using the procedure of Chiamulera C et al. Psychpharmacology 1990, 102,-551-552. In this test the ability of the compound to inhibit the generalized seizures induced by an intracerebroventricular injection of NMDA in mice was examined. Thus the % inhibition of the NMDA induced convulsions when a compound of the invention was given the dose of 0.1 mg/kg I.V. was determined and representative results obtained for compounds of the invention are given in the following table.
row,Structure (SMILES),inhibition in vivo at 0.1 mg/kg
1,"NC(=O)NCc1ccc(NC(=O)/C=C/c2c(C(=O)O)[nH]c3cc(Cl)cc(Cl)c23)cc1 [Example 9, (E)4,6-dichloro-3-[2'-(4'-ureidomethylphenylcarbamoyl)ethenyl]-1-H-indole 2-carboxylic acid,sodium salt]",60%
2,"CCNC(=O)NCc1ccc(NC(=O)/C=C/c2c(C(=O)O)[nH]c3cc(Cl)cc(Cl)c23)cc1 [Example 12, (E)4,6-dichloro-3-[2'-(4'-ethylureidomethylphenylcarbamoyl)ethenyl]-1-H-indole 2-carboxylic acid,sodium salt]",50%
3,"CCNC(=S)NCc1ccc(NC(=O)/C=C/c2c(C(=O)O)[nH]c3cc(Cl)cc(Cl)c23)cc1 [Example 14, (E)4,6-dichloro-3-[2'-(4'-ethylthioureidomethylphenylcarbamoyl)ethenyl]-1-H-indole 2-carboxylic acid]",30%
4,"O=C(/C=C/c1c(C(=O)O)[nH]c2cc(Cl)cc(Cl)c12)Nc1ccc(CNC(=O)Nc2ccccc2)cc1 [Example 16, (E)4,6-dichloro-3-[2'-(4'-phenylureidomethylphenylcarbamoyl)ethenyl]-1-H-indole 2-carboxylic acid]",30%
5,"NC(=O)NCCc1ccc(NC(=O)/C=C/c2c(C(=O)O)[nH]c3cc(Cl)cc(Cl)c23)cc1 [Example 19, 4,6-dichloro-3-[(E)-2'-(4'-ureidoethylphenylcarbamoyl)ethenyl]-1-H-indole 2-carboxylic acid,sodium salt]",30%
6,"O=C(/C=C/c1c(C(=O)O)[nH]c2cc(Cl)cc(Cl)c12)Nc1ccc(CNC(=O)NC2CC2)cc1 [Example 31, (E)-4,6-dichloro-3-[-2'-(4'-cyclopropyl-ureido-methyl-phenylcarbamoyl)vinyl]-1H-indole-2-carboxylic acid sodium salt]",40%
7,"COc1ccc(NC(=O)NCc2ccc(NC(=O)/C=C/c3c(C(=O)O)[nH]c4cc(Cl)cc(Cl)c34)cc2)cc1 [Example 37, (E)-4,6-dichloro-3-{2'-[4'-(4""-methoxy-phenyl-ureidomethyl)-phenylcarbamoyl]ethenyl}-1H-indole-2-carboxylic acid]",50%
8,"O=C(/C=C/c1c(C(=O)O)[nH]c2cc(Cl)cc(Cl)c12)Nc1ccc(CNC(=O)NC2CCOCC2)cc1 [Example 40, sodium salt]",40%
9,CCOC(=O)CNC(=O)NCc1ccc(NC(=O)/C=C/c2c(C(=O)OCC)[nH]c3cc(Cl)cc(Cl)c23)cc1 [Example 43],40%
10,"O=C(O)CNC(=O)NCc1ccc(NC(=O)/C=C/c2c(C(=O)O)[nH]c3cc(Cl)cc(Cl)c23)cc1 [Example 44, (E)-4,6-dichloro-3-[2'-(4'-carboxymethylureido-methyl-phenylcarbamoyl)ethenyl]-1H-indole-2-carboxylic acid]",40%

# Target: T1, strychnine insensitive glycine binding site located on the NMDA receptor complex (Rattus norvegicus, UniProt P35439)
# T1 construct: from tissue; host or cells: central nervous system membranes, rat
# Test: affinity for strychnine insensitive glycine binding site located on the NMDA receptor complex (procedure of Kishimoto H. et al)
# Details: not given
# Experimental: The potent and selective action of the compound of the invention at the strychnine- insensitive glycine binding site present on the NMDA receptor complex may be readily determined using conventional test procedures. Thus the ability to bind at the strychnine insensitive glycine binding site was determined using the procedure of Kishimoto H et al. J Neurochem 1981, 37 1015-1024. The selectivity of the action of compounds of the invention for the strychnine insensitive glycine site was confirmed in studies at other ionotropic known excitatory amino acid receptors.
# The affinity of a compound of the invention for strychnine insensitive glycine binding site located on the NMDA receptor complex was determined using the procedure of Kishimoto H. et al J. Neurochem 1981, 37, 1015-1024. The pKi with representative compounds of the invention are given in […]
row,Structure (SMILES),Ki
1,"NC(=O)NCc1ccc(NC(=O)/C=C/c2c(C(=O)O)[nH]c3cc(Cl)cc(Cl)c23)cc1 [Example 8, (E)4,6-dichloro-3-[2'-(4'-ureidomethylphenylcarbamoyl)ethenyl]-1-H-indole2-carboxylic acid]",2.51 nM
2,"O=C(/C=C/c1c(C(=O)O)[nH]c2cc(Cl)cc(Cl)c12)Nc1ccc(CNC(=O)Nc2ccccc2)cc1 [Example 16, (E)4,6-dichloro-3-[2'-(4'-phenylureidomethylphenylcarbamoyl)ethenyl]-1-H-indole 2-carboxylic acid]",20 nM
3,"NC(=O)Nc1ccc(NC(=O)/C=C/c2c(C(=O)O)[nH]c3cc(Cl)cc(Cl)c23)cc1 [Example 21, 4,6-dichloro-3-[(E)-2'-(4'-ureidophenylcarbamoyl)ethenyl]-1-H-indole2-carboxylic acid,]",1.82 nM
4,"O=C(/C=C/c1c(C(=O)O)[nH]c2cc(Cl)cc(Cl)c12)Nc1ccc(NC(=O)Nc2ccccc2)cc1 [Example 24, (E)-4,6-dichloro-3-[2'-(4'-phenyl-ureido-phenylcarbamoyl)ethenyl]-1H-indole-2-carboxylic acid]",39.8 nM
5,"CN(C)C(=O)Nc1ccc(NC(=O)/C=C/c2c(C(=O)O)[nH]c3cc(Cl)cc(Cl)c23)cc1 [Example 27, (E)-4,6-dichloro-3-[2'-(4'-dimethyl-ureido-phenylcarbamoyl)ethenyl]-1H-indole-2-carboxylic acid]",3.89 nM
6,NC(=O)NCc1cccc(NC(=O)/C=C/c2c(C(=O)O)[nH]c3cc(Cl)cc(Cl)c23)c1 [Example 34],2.45 nM
7,O=C(/C=C/c1c(C(=O)O)[nH]c2cc(Cl)cc(Cl)c12)Nc1ccc(CNC(=O)NC2CCOCC2)cc1 [Example 39],9.12 nM
8,"O=C(/C=C/c1c(C(=O)O)[nH]c2cc(Cl)cc(Cl)c12)Nc1ccc(NC(=O)NC2CC2)cc1 [Example 50, 4,6-dichloro-3-[(E)-2'-(4'-cyclopropylureidophenylcarbamoyl)ethenyl]-1-H-indole-2-carboxylic acid sodium salt]",3.16 nM
9,"O=C(/C=C/c1c(C(=O)O)[nH]c2cc(Cl)cc(Cl)c12)Nc1ccc(NC(=O)Nc2cccnc2)cc1 [Example 51, 4,6-dichloro-3-[(E)-2'-(4'-nicotin-3-ylureidophenylcarbamoyl)ethenyl]-1-H-indole2-carboxylic acid]",3.89 nM
10,"O=C(/C=C/c1c(C(=O)O)[nH]c2cc(Cl)cc(Cl)c12)Nc1ccc(NC(=O)NC2CCOCC2)cc1 [Example 52, 4,6-dichloro-3-[(E)-2'-(4'-(-tetrahydropyran-4""-yl)-ureidophenylcarbamoyl)ethenyl]-1-H-indole-2-carboxylic acid sodium salt]",5.01 nM

# From patent publication US5919811A, “3-Substituted-indole-2-carboxylic acid derivatives as excitatory amino acid antagonists” (Glaxo Wellcome S.p.A., priority 1995, dated 1999)
